Measured values as given in paper PMC5974752, “Bax/Tubulin/Epithelial-Mesenchymal Pathways Determine the Efficacy of Silybin Analog HM015k in Colorectal Cancer Cell Growth and Metastasis” (Frontiers in Pharmacology, 2018).

Assays:
HCT116 cells [1] = test: MitoTracker Red / Alexa Fluor 488 annexin V flow cytometry; assay type: cell-based, human; settings: overnight
Method: The mitochondrial membrane potential and the induction of apoptosis were analyzed in HCT116 cells using the MitoTracker Red and Alexa Fluor 488 annexin V kits for flow cytometry as previously described (Karthikeyan et al., [2015]). Six well plates were used for seeding of cells, followed by incubation with 15j or 15k (0, 1, 2, and 4μM) for overnight. Subsequently, the cells were harvested, counted and 4 μl of a 10μM working solution of MitoTracker Red was added to each 1 ml cell suspension, followed by 30 min of incubation at 37°C with 5% CO2. The cells were resuspended in 100 μl of annexin binding buffer and 5 μl of Alexa Fluor 488 annexin V was added to the suspension and incubated for 15 min. Finally, 400 μl of annexin-binding buffer was added and the stained cells were detected by flow cytometry. The fluorescence emission at 530 and 585 nm was measured using a BD Accuri™ C6 flow cytometer and analyzed using FCS express 5 plus De Novo software.

COLO 205 cell line = test: Transwell migration assay; assay type: cell-based; settings: 2 and 4 μM, data not shown
Method: The effect of compound 15k on the invasiveness of LOVO was tested using 24 trans-well inserts with an […]. The addition of the insert to the well forms two chambers (upper and lower), where the upper chamber was used to grow the cells on the porous membrane. The lower chamber was filled with 600 μl of cell-free DMEM medium. A 200 μl of cell suspension was added to each insert and allowed to attach for 1 h. The test compound was added in different concentrations and incubated with the cells for 24 h. […] Finally, the remaining migrated cells were fixed by methanol and dyed with 0.1% crystal violet dye and observed with an EVOS microscope. The number of migrated cells was counted and compared between the treated and control cells.
The development of cancer metastasis is dependent on the migration and invasive properties of cancerous cells (van Zijl et al., [2011]). The wound healing and transwell migration assays were used with LOVO cells, as a model for metastatic CRC as it is characterized by a high level of invasiveness (Fan et al., [2015]). The wound healing assay is a well-established method to detect and analyze cell migration potential (Liang et al., [2007]). […] The effect of compound 15k on the invasiveness of COLO 205 cell line was also measured using trans-well migration assay. […] 15j also reversed cell migration and metastasis at different concentrations.

HCT116 cells [2] = test: IncuCyte annexin V red real time apoptosis; assay type: cell-based, human
Method: For real time quantification of apoptosis induction, the fluorescent Caspase 3/7 and Annexin V red reagents, with an excitation maximum of 500 and 593 nm and an emission maximum of 530 and 614 nm, respectively, were used. The HCT116 cells were seeded at a density of 1,000 cell/well and allowed to grow overnight. The next day, compound 15k at 0, 2, 4, and 8μM was prepared and added, directly followed by the caspase 3/7 reagent at final concentration of 5μM or annexin V red reagent in final dilution of 1: 200. The cells were then incubated in IncuCyte Zoom live cell imaging and pictures were taken every 2 h for up to 50 h and analyzed using the integrated software. The IncuCyte® Caspase-3/7 apoptosis assay reagent couples the activated caspase-3/7 recognition motif (DEVD) to NucView™ 488, a DNA intercalating dye to enable quantification of apoptosis over time. Caspase-3/7 assay reagent is non-perturbing to cell growth and morphology. When added to cell culture medium, this inert, non-fluorescent substrate crosses the cell membrane, where it is cleaved by activated caspase-3/7, resulting in the release of the DNA dye and green fluorescent staining of nuclear DNA.

[3] = test system: HCT116 Bax-Bak double knockout (DKO) cells; test: MTT assay, knockout cells; assay type: cell-based; settings: Homo sapiens, HCT-116, p < 0.05 vs WT
Method: (§1) Colorectal cancer cell lines, including HCT116, LOVO, and S1, with varying drug sensitivity and invasiveness, were grown as adherent monolayer in culturing flasks. Normal epithelial cells lines (Chinese hamster ovarian: CHO, normal epithelial colon: CRL1459) were also grown. Both cancerous and normal cell lines were kindly obtained from the late Dr. Gary Kruh (University of Chicago, Illinois). In addition, CRC HCT116 Bax knockout (Bax–/–) cells were kindly provided by Dr. Bert Vogelstein (Johns Hopkins, Baltimore) (Zhang et al., [2000]), Bak knockout (Bak–/–) and Bax-Bak double knockout (Bax–/– and Bak–/–) cells were kindly provided by Richard Youle (NIH, […], MD) (Wang and Youle, [2012]). DMEM, with 4.5 g of glucose, was supplemented with 10% fetal bovine serum (FBS) and 1% penicillin/streptomycin and used for all cell lines. The cells were cultured in a humidified incubator containing 5% CO2 at 37°C. All of cells were checked and confirmed to be free of fungi and mycoplasma. Cells were obtained from frozen stocks and cell passaging (up to P4) was performed at 80% cell confluency by PBS and trypsin + 2.2 mM EDTA.
(§2) The 3-(4,5-dimethylthiazol-2-yl)-2,5-diphenyltetrazolium bromide (MTT) assay was used to determine the sensitivity of the different CRC cells to the novel silybin derivatives (Hussein et al., [2017]; Manivannan et al., [2017]). The cells were seeded at a density of 4,000–5,000 cells/well in 96 well plates and incubated with serial dilutions of the compounds (0, 0.1, 0.3, 1, 3, 10, 30, and 100 μM). The MTT dye (4 mg/ml) was added after 72 h of incubation and incubated with the cells for an additional 4 h at 37°C. […] A DTX 880 multimode detector (Beckman Coulter Life, Indianapolis IN, USA) was used to determine the absorbance readings at a wavelength of 570 nm. The IC50 values were determined based on 3 separate experiments, with each experiment done in triplicate. The selectivity of the compounds was determined by comparing their cytotoxicity for CRC to normal epithelial cell lines (CHO, and CRL1459).

[4] = test system: HCT116 Bak knockout (Bak–/–) cells; test: MTT assay, knockout cells; assay type: cell-based; settings: Homo sapiens, HCT-116, not significantly different from WT
Method: as §1, §2

[5] = test system: HCT116 Bax knockout (Bax–/–) cells; test: MTT assay, knockout cells; assay type: cell-based; settings: Homo sapiens, HCT-116, p < 0.05 vs WT
Method: as §1, §2

CHO = test: MTT assay, normal cell line; assay type: cell-based, Chinese hamster; settings: Cricetulus griseus, 72 h incubation, mean ± SD of three experiments
Method: The 3-(4,5-dimethylthiazol-2-yl)-2,5-diphenyltetrazolium bromide (MTT) assay was used to determine the sensitivity of the different CRC cells to the novel silybin derivatives (Hussein et al., [2017]; Manivannan et al., [2017]). The cells were seeded at a density of 4,000–5,000 cells/well in 96 well plates and incubated with serial dilutions of the compounds (0, 0.1, 0.3, 1, 3, 10, 30, and 100 μM). The MTT dye (4 mg/ml) was added after 72 h of incubation and incubated with the cells for an additional 4 h at 37°C. Following incubation, the media was discarded and the formazan crystals were dissolved by adding 100 μL of DMSO to each well. A DTX 880 multimode detector (Beckman Coulter Life, Indianapolis IN, USA) was used to determine the absorbance readings at a wavelength of 570 nm. The IC50 values were determined based on 3 separate experiments, with each experiment done in triplicate. The selectivity of the compounds was determined by comparing their cytotoxicity for CRC to normal epithelial cell lines (CHO, and CRL1459).

IC50 [3]: 13.6 µM
IC50 [4]: 3.6 µM
IC50 [5]: 10.9 µM
Structure (SMILES): O=C(/C=C/c1cccc(OCc2ccccc2)c1)c1ccc(O)cc1 [Compound 15k]
cells undergoing apoptosis, quadrant II (Q2) (HCT116 cells [1]; 2 μM, vehicle 2.83%): 47%
viability at 2 µM (HCT116 cells [1]; Homo sapiens, HCT-116, 2 μM, vehicle 90.66%, read-out: viable cells in quadrant I (Q1)): 35.8%
viability at 4 µM (HCT116 cells [1]; Homo sapiens, HCT-116, 4 μM, vehicle 90.66%, read-out: viable cells in quadrant I (Q1)): 36%
trans-well migration (COLO 205 cell line): significantly inhibited the migration
annexin V red fluorescence over time (HCT116 cells [2]; 2, 4 or 8 μM, vs control): significantly increased annexin V red fluorescence
incubation time at which significant difference in annexin V fluorescence appeared (HCT116 cells [2]; vehicle vs 15k): 12 h
IC50 (CHO): 8.1 ± 1.2 µM
